# In patent US20240327414A1, “CYCLOPROPYL-(HETERO)ARYL-SUBSTITUTED ETHYL- SULFONE / SULFOXIMINE-PYRIDINE N-OXIDE DERIVATIVES” (Boehringer Ingelheim Vetmedica GmbH, priority 2023, published 2024):
# Tests used:
# A. aegypti L1 larvae = experiment: Screening against larvae of Aedes aegypti; details: 48 h at 27° C., percentage of mortality
# Experimental: Example 3: Screening Method to Test Activity of N-Oxide Compounds of Formula (I), (Ia) or (Ib) Against Larvae of Aedes aegypti
# Eight A. aegypti L1 larvae in a total volume of 64 μL water are added to 384-well microplates containing N-oxide compounds of formula (I), (Ia) and (Ib) formulated in 100% DMSO. The plates are incubated for 48 h at 27° C. Individual well images are acquired and analyzed using a pipeline to quantitatively assess the amount of larvae biomass accumulating at the bottom of the well. The efficacy of a compound at a given dose is expressed as “percentage of mortality” and determined by comparison to average biomass descriptors of positive and negative control wells containing 1.0 μM Fipronil or DMSO only, respectively. Dose response assay are conducted to determine an EC50 value.
# adult C. felis fleas [1] = experiment: Ingestion activity against adult Ctenocephalides felis (membrane feeding, motility); details: 48 h, ingestion in bovine blood, % motility reduction 48h post treatment
# Experimental: Example 6: Screening Method to Test Ingestion Activity of N-Oxide Compounds of Formula (I), (Ia) or (Ib) Against Adult Ctenocephalides felis
# N-oxide compounds of formula (I), (Ia) and (Ib) dissolved in 100% DMSO are added to bovine blood and offered via an artificial membrane feeding system to adult C. felis fleas. The motility of fleas is then visually inspected 48h post treatment. Efficacy is expressed in % motility reduction compared to controls containing blood treated with DMSO only. A dose response series is implemented to determine EC50 values.
# adult C. felis fleas [2] = experiment: Ingestion activity against adult Ctenocephalides felis (alternative method, membrane feeding, mortality); details: bovine blood, mortality at 48 hours post-treatment
# Experimental: Selected N-oxide compounds of formula (I), (Ia) and (Ib) and compound “P23” of WO 2016/030229 dissolved in 100% DMSO are diluted in bovine blood with sodium heparin anti-coagulant. The resulting formulation is offered via an artificial membrane feeding system to approximately 15 adult C. felis fleas previously dispensed into 24-well plates. The plates are then incubated in a double-chambered device. Visual evaluation for mortality is performed at 48 hours post-treatment. Compound efficacy at a given dose is expressed as percentage mortality and determined by normalization to positive and negative controls. A dose response series is implemented to determine EC50 values.
# Example 7: Screening Method to Test Ingestion Activity of N-Oxide Compounds of Formula (I), (Ia) or (Ib) Against Adult Ctenocephalides felis (Alternative Method)
# N-oxide compounds of formula (I), (Ia) and (Ib) dissolved in 100% DMSO are diluted in bovine blood with sodium heparin anti-coagulant. The resulting formulation is offered via an artificial membrane feeding system to approximately 15 adult C. felis fleas previously dispensed into 24-well plates. The plates are then incubated in a double-chambered device. Visual evaluation for mortality is performed at 48 hours post-treatment. Compound efficacy at a given dose is expressed as percentage mortality and determined by normalization to positive and negative controls. A dose response series is implemented to determine EC50 values.
# The structurally closest prior art compound “P23” of WO 2016/030229 is characterized vis-à-vis selected N-oxide compounds of formula (I), (Ia) and (Ib) with regard to their potency in in vitro screening assay to test ingestion activity against adult fleas (Ctenocephalides felis) (alternative method according to Example 7).
# Plutella xylostella = experiment: Insecticidal test on Plutella xylostella; format: in vivo; details: 144 h, Chinese cabbage seedling dip, 6 days after the dip treatment, read-out: activity level (corrected mortality rate)
# Experimental: Example 15: Insecticidal Test on Plutella xylostella
# The N-oxide compounds of formula (I), (Ia) and (Ib) of the present invention or salts thereof are separately dispersed in water and diluted to 500 ppm. Ten adults of Plutella xylostella are released onto Chinese cabbage seedlings and allowed to lay eggs thereon. 2 days after the release of the adults, the seedling is dipped in the dispersion for about 30 seconds. After air dried, the seedling is kept in a room at 25° C. 6 days after the dip treatment, the numbers of the dead and alive insects are counted. The corrected mortality rate is calculated according to the following formula and the insecticidal activity is evaluated according to the following criteria.
# (§1) [formula] [formula] • A: the corrected mortality rate is 100% • B: the corrected mortality rate is 90 to 99% • C: the corrected mortality rate is 80 to 89% • D: the corrected mortality rate is 50 to 79%
# Laodelphax striatellus = experiment: Insecticidal test on Laodelphax striatellus; format: in vivo; details: 192 h, rice seedling dip, 3rd-instar nymphs, 8 days after inoculation, read-out: activity level (corrected mortality rate)
# Experimental: Example 16: Insecticidal Test on Laodelphax striatellus
# The N-oxide compounds of formula (I), (Ia) and (Ib) of the present invention or salts thereof are separately dispersed in water and diluted to 500 ppm. Rice plant seedlings are dipped in the dispersion for about 30 seconds. After air dried, the seedlings are put into a separate glass test tube and inoculated with ten 3rd-instar nymphs of Laodelphax striatellus and then the glass test tube is kept in a room at 25° C. 8 days after the inoculation, the numbers of the dead and alive insects are counted. The corrected mortality rate is calculated according to the following formula and the insecticidal activity is evaluated according to the following criteria.
# as §1
# [3] = tested on: adult R. sanguineus ticks; experiment: Contact activity against adult Rhipicephalus sanguineus; details: mortality at 48 hours post-treatment
# Experimental: Example 5: Screening Method to Test Contact Activity of N-Oxide Compounds of Formula (I), (Ia) or (Ib) Against Adult Rhipicephalus sanguineus
# N-oxide compounds of formula (I), (Ia) and (Ib) formulated in 100% DMSO are diluted in a solution containing acetone and Triton X-100 (0.02%). The resulting formulation is used to coat the inner walls of glass scintillation vials and the filter paper covering the cap of the vial. Once dried, ten adult R. sanguineus ticks are added to the vials. The vials are incubated at 24° C., 95% relative humidity, and 12 hours of light/12 hours of dark until evaluation. Ticks are visually evaluated for mortality at 48 hours post-treatment. Compound efficacy at a given dose is expressed as percentage mortality. A dose response series was implemented to determine EC50 values.
# [4] = tested on: adult Ctenocephalides felis fleas; experiment: Contact activity against adult Ctenocephalides felis; details: adult C. felis, mortality at 72 hours post-treatment
# Experimental: Example 4: Screening Method to Test Contact Activity of N-Oxide Compounds of Formula (I), (Ia) or (Ib) Against Adult Ctenocephalides felis
# N-oxide compounds of formula (I), (Ia) and (Ib) dissolved in 100% DMSO are diluted in acetone to a desired concentration. The resulting formulation is used to coat the fibers of a 0.5-inch-long piece of pipe cleaner placed in a glass scintillation vial. The vial is capped with a rubber gasket and filter paper insert. After the acetone has evaporated, ten adult Ctenocephalides felis fleas are added to each vial. The vials are then incubated at 22° C., 80% relative humidity, and 12 hours of light/12 hours of dark until a visual evaluation for mortality is performed at 72 hours post-treatment. Compound efficacy at a given dose is expressed as percentage mortality and adjusted to remove background mortality observed in control vials containing DMSO only. A dose response series of treated vials is implemented to determine EC50 values.
# Spodoptera litura = experiment: Insecticidal test on Spodoptera litura; format: in vivo; details: foliar, 192 h, cabbage leaf dip, 2nd-instar larvae, 8 days after inoculation, read-out: activity level (corrected mortality rate)
# Experimental: Example 14: Insecticidal Test on Spodoptera litura
# The N-oxide compounds of formula (I), (Ia) and (Ib) of the present invention or salts thereof are separately dispersed in water and diluted to 500 ppm. Cabbage leaves are dipped in the dispersion for about 30 seconds. After air dried, the leaves are placed in a plastic Petri dish with a diameter of 9 cm and inoculated with ten 2nd-instar larvae of Spodoptera litura, after which the dish is closed and then allowed to stand in a room at 25° C. 8 days after the inoculation, the numbers of the dead and alive insects are counted. The corrected mortality rate is calculated according to the following formula and the insecticidal activity is evaluated according to the following criteria.
# as §1
EC50 (adult C. felis fleas [1]) [µM],SMILES,EC50 (A. aegypti L1 larvae) [µM],EC50 (adult C. felis fleas [2]) [µM],mortality at 500 ppm (Plutella xylostella) [%],mortality at 500 ppm (Laodelphax striatellus) [%],EC50 [3] [µM],EC50 [4] [µM],mortality at 500 ppm (Spodoptera litura) [%]
10 to 100,"CCS(=O)(=O)c1cc(-c2noc(C3CC3)n2)c[n+]([O-])c1-c1nc2cc(C(F)(F)C(F)(F)F)n[n+]([O-])c2n1C [Compound 4, 5-(5-cyclopropyl-1,2,4-oxadiazol-3-yl)-3-(ethanesulfonyl)-2-[7-methyl-1-oxido-3-(1,1,2,2,2-pentafluoroethyl)-7H-imidazo[4,5-c]pyridazin-1-ium-6-yl]pyridin-1-ium-1-olate]",,,,,,,
< 10,"CCS(=O)(=O)c1cc(-c2noc(C3CC3)n2)cnc1-c1nc2cc(C(F)(F)C(F)(F)F)[n+]([O-])nc2n1C [Compound 2, 6-[5-(5-cyclopropyl-1,2,4-oxadiazol-3-yl)-3-(ethanesulfonyl)pyridin-2-yl]-7-methyl-3-(1,1,2,2,2-pentafluoroethyl)-7H-imidazo[4,5-c]pyridazin-2-ium-2-olate]",,,,,,10 to 100,
< 10,CCS(=O)(=O)c1cc(-c2noc(C3CC3)n2)cnc1-c1nc2cc(C(F)(F)C(F)(F)F)c[n+]([O-])c2n1C [Compound 33],,0.889,100,100,10 to 100,< 10,
< 10,"CCS(=O)(=O)c1cc(-c2noc(C3CC3)n2)cnc1-c1nc2cc(C(F)(F)C(F)(F)F)n[n+]([O-])c2n1C [Compound 1, 6-[5-(5-cyclopropyl-1,2,4-oxadiazol-3-yl)-3-(ethanesulfonyl)pyridin-2-yl]-7-methyl-3-(1,1,2,2,2-pentafluoroethyl)-7H-imidazo[4,5-c]pyridazin-1-ium-1-olate]",,0.783,100,100,,10 to 100,
< 10,"CCS(=O)(=O)c1cc(-c2noc(C3CC3)n2)c[n+]([O-])c1-c1nc2cc(C(F)(F)C(F)(F)F)nnc2n1C [Compound 3, 5-(5-cyclopropyl-1,2,4-oxadiazol-3-yl)-3-(ethanesulfonyl)-2-[7-methyl-3-(1,1,2,2,2-pentafluoroethyl)-7H-imidazo[4,5-c]pyridazin-6-yl]pyridin-1-ium-1-olate]",,,,,,,

# More lines, now with the values behind:
SMILES,EC50 (adult C. felis fleas [1]) [µM],EC50 (A. aegypti L1 larvae) [µM],EC50 (adult C. felis fleas [2]) [µM],mortality at 500 ppm (Plutella xylostella) [%],mortality at 500 ppm (Laodelphax striatellus) [%],EC50 [3] [µM],EC50 [4] [µM],mortality at 500 ppm (Spodoptera litura) [%]
CCS(=O)(=O)c1cc(-c2ccc(C3(F)CC3)cc2)c[n+]([O-])c1-c1nc2cc(C(F)(F)C(F)(F)F)nnc2n1C [Compound 27],< 10,< 0.04,0.46,100,100,,,
CCS(=O)(=O)c1cc(-c2noc(C3CC3)n2)cnc1-c1nc2cc(C(C)(F)F)n[n+]([O-])c2n1C [Compound 39],,,0.454,100,100,,,
CCS(=O)(=O)c1cc(-c2ccc(C3(F)CC3)cc2)cnc1-c1nc2cc(C(F)(F)C(F)(F)F)n[n+]([O-])c2n1C [Compound 36],10 to 100,< 0.04,1.06,100,100,10 to 100,,
"CCS(=O)(=O)c1cc(-c2ccc(C3(C#N)CC3)cc2)c[n+]([O-])c1-c1nc2cc(C(F)(F)F)cn(CC(F)F)c-2c1F [Compound 44, 5-[4-(1-cyanocyclopropyl)phenyl]-2-[4-(2,2-difluoroethyl)-3-fluoro-6-(trifluoromethyl)-4H-pyrrolo[3,2-b]pyridin-2-yl]-3-(ethanesulfonyl)pyridin-1-ium-1-olate]",,,,,,,10 to 100,
CCS(=O)(=O)c1cc(-c2cc(C3CC3)ccn2)cnc1-c1nc2cc(C(F)(F)C(F)(F)F)c[n+]([O-])c2n1C [Compound 29],10 to 100,0.04 to 0.05,,,,,,
CCS(=O)(=O)c1cc(-c2noc(C3(C(F)(F)F)CC3)n2)cnc1-c1n(C)c2ncc(C(C)(F)F)cc2[n+]1[O-] [Compound 7],,,0.41,,,,,
CCS(=O)(=O)c1cc(-c2noc(C3CC3)n2)cnc1-c1nc2cc(C(C)(F)F)[n+]([O-])nc2n1C [Compound 40],,,0.807,,,,,
CCS(=O)(=O)c1cc(-c2noc(C3(C(F)(F)F)CC3)n2)cnc1-c1nc2cc(C(C)(F)F)n[n+]([O-])c2n1C [Compound 8],< 10,,0.141,100,100,,10 to 100,100
CCS(=O)(=O)c1cc(-c2ccc(C3(F)CC3)cc2)c[n+]([O-])c1-c1nc2cc(C(F)(F)C(F)(F)F)n[n+]([O-])c2n1C [Compound 45],< 10,< 0.04,,,,,,
CCS(=O)(=O)c1cc(-c2ccc(C3CC3)cc2)c[n+]([O-])c1-c1nc2cc(C(F)(F)C(F)(F)F)cnc2n1C [Compound 23],10 to 100,,,,,,,
